This note sets out measurements from the Kinase Knowledgebase extract (Sharma et al. 2016).

A word on the IC50: it is the point on the concentration scale where inhibition reaches its midpoint. A high value points to weaker potency.

Sequence of ROCK2 (human) (O75116 whole entry, looked up): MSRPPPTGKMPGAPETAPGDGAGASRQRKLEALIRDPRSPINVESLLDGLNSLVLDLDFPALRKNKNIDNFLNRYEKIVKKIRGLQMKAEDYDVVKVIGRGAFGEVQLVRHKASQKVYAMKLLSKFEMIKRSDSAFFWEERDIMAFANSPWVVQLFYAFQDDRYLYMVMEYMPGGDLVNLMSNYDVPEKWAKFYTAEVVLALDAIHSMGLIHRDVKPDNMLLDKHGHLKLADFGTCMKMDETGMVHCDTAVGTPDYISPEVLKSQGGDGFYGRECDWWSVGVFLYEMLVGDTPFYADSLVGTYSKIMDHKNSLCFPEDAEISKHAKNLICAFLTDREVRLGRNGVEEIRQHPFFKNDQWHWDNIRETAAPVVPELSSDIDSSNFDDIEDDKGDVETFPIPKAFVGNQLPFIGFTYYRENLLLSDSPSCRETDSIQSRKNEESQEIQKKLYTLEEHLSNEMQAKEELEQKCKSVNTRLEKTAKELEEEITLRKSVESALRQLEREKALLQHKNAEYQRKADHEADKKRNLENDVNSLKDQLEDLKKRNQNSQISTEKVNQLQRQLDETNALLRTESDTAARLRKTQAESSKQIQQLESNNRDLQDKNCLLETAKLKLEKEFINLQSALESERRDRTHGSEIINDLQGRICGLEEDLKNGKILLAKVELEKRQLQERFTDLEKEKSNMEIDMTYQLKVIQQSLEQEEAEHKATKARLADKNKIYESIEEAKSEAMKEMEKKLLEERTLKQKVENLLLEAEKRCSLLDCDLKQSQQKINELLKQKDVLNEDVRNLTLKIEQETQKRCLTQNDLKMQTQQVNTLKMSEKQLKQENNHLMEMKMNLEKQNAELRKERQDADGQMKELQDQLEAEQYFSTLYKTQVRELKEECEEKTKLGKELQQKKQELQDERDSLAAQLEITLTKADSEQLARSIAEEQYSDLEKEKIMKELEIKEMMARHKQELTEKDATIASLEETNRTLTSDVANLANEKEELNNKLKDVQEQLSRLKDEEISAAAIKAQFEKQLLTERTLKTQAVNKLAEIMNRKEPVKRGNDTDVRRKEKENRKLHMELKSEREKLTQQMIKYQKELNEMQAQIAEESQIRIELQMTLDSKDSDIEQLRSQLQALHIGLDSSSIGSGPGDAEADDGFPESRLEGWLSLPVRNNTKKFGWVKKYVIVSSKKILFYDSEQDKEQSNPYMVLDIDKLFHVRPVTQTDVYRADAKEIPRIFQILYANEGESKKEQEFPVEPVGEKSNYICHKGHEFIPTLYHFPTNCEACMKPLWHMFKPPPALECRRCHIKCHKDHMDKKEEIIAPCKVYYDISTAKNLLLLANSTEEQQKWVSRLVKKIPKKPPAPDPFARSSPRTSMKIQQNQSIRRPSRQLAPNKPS

This assay concerns the target ROCK2 (human) (UniProt O75116). Briefly: Assessment of ROCK2 Kinase Activity.
`N[C@]1(C2CC2)CC[C@H](Oc2cc3cc[nH]c(=O)c3cc2Cl)CC1`: the IC50 is no more than 1000 nM.

As to `C=CCC1(N)CCC(Oc2cc3cc[nH]c(=O)c3cc2Cl)CC1` (stereo unspecified), the IC50 was no more than 1000 nM.

In the case of `NC1(CC(O)CO)CCC(Oc2cc3cc[nH]c(=O)c3cc2Cl)CC1` (stereo unspecified), the IC50 is no more than 1000 nM.

Regarding `NCC1(c2ccccc2)CCC(Oc2cc3ccncc3cc2Cl)CC1` (stereo unspecified), the IC50 is no more than 1000 nM.

Take `COc1ccc(C2(CN)CCC(Oc3cc4cc[nH]c(=O)c4cc3Cl)CC2)cc1` (stereo unspecified): the IC50 is no more than 1000 nM.

Compound `NCC1(c2ccc(F)cc2)CCC(Oc2cc3cc[nH]c(=O)c3cc2Cl)CC1` (stereo unspecified) returned an IC50 of no more than 1000 nM.

For `COc1ccc(C2(CN)CCC(Oc3cc4cc[nH]c(=O)c4cc3Cl)CC2)cc1OC` (stereo unspecified), the IC50 is no more than 1000 nM.

`NCC1(c2ccc(Cl)c(Cl)c2)CCC(Oc2cc3cc[nH]c(=O)c3cc2Cl)CC1` (stereo unspecified) displayed an IC50 of no more than 1000 nM.

Regarding `NCC1(c2cccc(Cl)c2)CCC(Oc2cc3cc[nH]c(=O)c3cc2Cl)CC1` (stereo unspecified), the IC50 is no more than 1000 nM.

`NCC1(c2ccc(Cl)cc2)CCC(Oc2cc3cc[nH]c(=O)c3cc2Cl)CC1` (stereo unspecified) registered an IC50 of no more than 1000 nM.

`NCC1(c2ccccc2)CCC(Oc2cc3cc[nH]c(=O)c3cc2Cl)CC1` (stereo unspecified) registered an IC50 of no more than 1000 nM.
